Data: patent US11919854B2, “P2RX7 modulators in therapy” (Centre national de la recherche scientifique, priority 2018, dated 2024)

Biological target: T1, mouse P2RX7 (mP2RX7) (Mus musculus, UniProt Q9Z1M0)
T1 construct: expressed in transfected cells; host or cells: HEK cells
T1 sequence (Q9Z1M0 1-595): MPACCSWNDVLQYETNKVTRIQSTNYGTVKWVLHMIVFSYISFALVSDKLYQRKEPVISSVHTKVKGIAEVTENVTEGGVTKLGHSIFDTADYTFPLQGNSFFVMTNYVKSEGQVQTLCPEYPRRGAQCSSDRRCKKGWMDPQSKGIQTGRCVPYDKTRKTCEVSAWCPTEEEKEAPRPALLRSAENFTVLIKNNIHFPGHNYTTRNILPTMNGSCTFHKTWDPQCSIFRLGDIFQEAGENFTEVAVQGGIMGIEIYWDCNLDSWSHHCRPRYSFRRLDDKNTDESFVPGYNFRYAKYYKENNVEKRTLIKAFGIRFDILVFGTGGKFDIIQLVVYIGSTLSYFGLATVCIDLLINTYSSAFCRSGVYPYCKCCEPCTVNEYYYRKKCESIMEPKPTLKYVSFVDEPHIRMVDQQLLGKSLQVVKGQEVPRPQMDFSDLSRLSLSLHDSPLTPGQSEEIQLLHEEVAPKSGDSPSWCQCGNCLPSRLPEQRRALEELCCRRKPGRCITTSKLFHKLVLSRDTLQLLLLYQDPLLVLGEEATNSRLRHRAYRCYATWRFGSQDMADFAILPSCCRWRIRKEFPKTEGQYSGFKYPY
Experiment: Channel activity (Fluo4-AM) and large pore opening (Topro3) by flow cytometry, HEK cells expressing mP2RX7, 1 h BzATP
Format: cell-based
Protocol: Calcium channel activity (Fluo4AM probe) and large pore opening (Topro3 probe) were analysed by FACS on mP2RX7 HEK cells. Cells were non stimulated (NS) or treated with BzATP (500 μM) alone or in the presence of HEI2314, HEI2328, HEI2333 or HEI2336 (used at 50 μM).
Calcium channel activity (Fluo4AM probe) and large pore opening (Topro3 probe) were analysed by FACS on mock and mP2RX7 HEK cells. Cells were non stimulated (NS) or treated with BzATP (500 μM) alone or in the presence of HEI2328 used at 50 μM.
2.1. […] Cation channel activity is assayed with the Fluo4 AM (Invitrogen) probe and opening of large pore with Topro3 (Invitrogen). In each experiment 2×10^6 cells were incubated with 50 nM Fluo4-AM for 30 minutes. After washing, cells were treated with 500 μM BzATP (3′-O-(4-benzoyl)benzoyl ATP) for 1 h, or non-treated, in presence of the compounds of the invention at 50 μM. When indicated, the Topro3 probe (8.5 nM) was added during the 1 h stimulation time. Fluorescence was assayed by flow cytometry.

[1] = cells expressing mP2RX7, BzATP 500 μM

Topro3 positive cells (BzATP 500 μM only, 1 h, mP2RX7 cells) | activity in Mock cells (Mock HEK cells (no P2X receptors)) | increase of Ca2+ entry [1] | increase of large pore opening [1] | SMILES | Topro3 entry (large pore opening) (compound 50 μM, BzATP 500 μM, 1 h, mP2RX7 HEK cells)
 |  |  |  | O=C(NCc1ccc(Cl)cc1Cl)[C@@H]1CCC(=O)N1C(=O)Nc1ccccc1Cl [HEI2314, (S)—N^1-(2-Chlorophenyl)-N^2-(2,4-dichlorobenzyl)-5-oxopyrrolidine-1,2-dicarboxamide] | increase Topro3 entry only in presence of BzATP
24.7% | inactive | 15 fold | 4 fold | Nc1ncnc2c1ncn2[C@@H]1O[C@H](COP(=O)(O)OP(=O)(O)OP(=O)(O)O)[C@@H](OC(=O)c2ccc(C(=O)c3ccccc3)cc2)[C@H]1O [BzATP, 3′-O-(4-benzoyl)benzoyl ATP, reference compound] | 
